Measured values as given in ChEMBL document CHEMBL4507276 (2021).

Tests used:
[1] = target: Serine/threonine-protein kinase PAK 3 (Homo sapiens) (UniProt O75914); assay: PAK3 Invitrogen selectivity data (BI); details: Compound concentration 3.0 uM
[2] = target: Serine/threonine-protein kinase PAK 2 (Homo sapiens) (UniProt Q13177); assay: PAK2 Invitrogen selectivity data (BI); details: Compound concentration 3.0 uM
[3] = target: T1, D(4) dopamine receptor (Homo sapiens) (UniProt P21917); assay: D4.2/H Eurofins-Panlabs selectivity data (BI); details: Compound concentration 10.0 uM
T1 sequence (whole entry): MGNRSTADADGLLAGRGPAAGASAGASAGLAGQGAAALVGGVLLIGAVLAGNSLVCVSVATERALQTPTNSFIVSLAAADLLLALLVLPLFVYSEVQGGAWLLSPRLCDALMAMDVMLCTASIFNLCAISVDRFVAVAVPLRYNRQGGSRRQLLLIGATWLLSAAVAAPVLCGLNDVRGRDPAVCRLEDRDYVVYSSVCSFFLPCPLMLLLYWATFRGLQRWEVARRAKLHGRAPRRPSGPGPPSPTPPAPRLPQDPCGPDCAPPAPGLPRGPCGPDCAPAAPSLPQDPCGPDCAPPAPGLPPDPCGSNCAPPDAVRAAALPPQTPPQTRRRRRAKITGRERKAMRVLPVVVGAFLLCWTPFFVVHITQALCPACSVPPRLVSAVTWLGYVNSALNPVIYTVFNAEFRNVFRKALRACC

[4] = target: T2, Serine/threonine-protein kinase 3 (Homo sapiens) (UniProt Q13188); assay: STK3 Invitrogen selectivity data (BI); details: Compound concentration 3.0 uM
T2 sequence (whole entry): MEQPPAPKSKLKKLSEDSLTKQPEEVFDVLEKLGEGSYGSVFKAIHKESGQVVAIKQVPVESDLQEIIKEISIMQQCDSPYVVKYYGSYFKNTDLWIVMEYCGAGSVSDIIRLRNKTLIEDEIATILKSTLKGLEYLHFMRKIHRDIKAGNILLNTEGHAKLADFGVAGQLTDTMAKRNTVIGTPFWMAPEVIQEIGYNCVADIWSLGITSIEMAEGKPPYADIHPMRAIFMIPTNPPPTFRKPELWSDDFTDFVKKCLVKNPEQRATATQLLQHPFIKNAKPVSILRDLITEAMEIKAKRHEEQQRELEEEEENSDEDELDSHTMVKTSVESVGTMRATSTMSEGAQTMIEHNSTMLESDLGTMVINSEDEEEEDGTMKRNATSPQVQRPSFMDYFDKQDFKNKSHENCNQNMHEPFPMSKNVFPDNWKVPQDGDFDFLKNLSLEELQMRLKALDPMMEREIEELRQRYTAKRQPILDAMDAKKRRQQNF

[5] = target: T3, Serine/threonine-protein kinase TAO3 (Homo sapiens) (UniProt Q9H2K8); assay: TAOK3 Invitrogen selectivity data (BI); details: Compound concentration 3.0 uM
T3 sequence (whole entry): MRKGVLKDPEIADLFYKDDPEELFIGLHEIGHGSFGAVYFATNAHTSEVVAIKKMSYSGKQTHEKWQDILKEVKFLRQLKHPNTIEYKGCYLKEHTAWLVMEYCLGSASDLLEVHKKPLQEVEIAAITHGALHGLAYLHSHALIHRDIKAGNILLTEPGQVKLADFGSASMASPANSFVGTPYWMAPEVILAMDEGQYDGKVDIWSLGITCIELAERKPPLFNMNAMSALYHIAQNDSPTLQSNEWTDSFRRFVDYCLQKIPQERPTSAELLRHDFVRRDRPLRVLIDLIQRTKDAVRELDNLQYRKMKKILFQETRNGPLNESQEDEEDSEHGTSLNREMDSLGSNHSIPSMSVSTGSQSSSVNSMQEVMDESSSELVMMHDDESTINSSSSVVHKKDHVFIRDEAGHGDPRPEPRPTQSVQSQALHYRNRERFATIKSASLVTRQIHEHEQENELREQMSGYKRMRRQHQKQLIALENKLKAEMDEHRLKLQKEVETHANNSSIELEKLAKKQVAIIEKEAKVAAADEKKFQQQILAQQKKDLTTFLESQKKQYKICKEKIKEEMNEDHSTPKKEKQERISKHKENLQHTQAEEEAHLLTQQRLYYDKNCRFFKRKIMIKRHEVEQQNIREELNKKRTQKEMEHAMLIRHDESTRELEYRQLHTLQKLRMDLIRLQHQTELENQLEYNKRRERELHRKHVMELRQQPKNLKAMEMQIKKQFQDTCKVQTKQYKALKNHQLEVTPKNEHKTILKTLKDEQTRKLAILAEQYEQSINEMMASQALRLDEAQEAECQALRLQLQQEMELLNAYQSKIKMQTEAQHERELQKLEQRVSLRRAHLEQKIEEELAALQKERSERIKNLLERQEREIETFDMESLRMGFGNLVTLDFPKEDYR

[6] = target: T4, Serine/threonine-protein kinase 4 (Homo sapiens) (UniProt Q13043); assay: STK4 Invitrogen selectivity data (BI); details: Compound concentration 3.0 uM
T4 sequence (whole entry): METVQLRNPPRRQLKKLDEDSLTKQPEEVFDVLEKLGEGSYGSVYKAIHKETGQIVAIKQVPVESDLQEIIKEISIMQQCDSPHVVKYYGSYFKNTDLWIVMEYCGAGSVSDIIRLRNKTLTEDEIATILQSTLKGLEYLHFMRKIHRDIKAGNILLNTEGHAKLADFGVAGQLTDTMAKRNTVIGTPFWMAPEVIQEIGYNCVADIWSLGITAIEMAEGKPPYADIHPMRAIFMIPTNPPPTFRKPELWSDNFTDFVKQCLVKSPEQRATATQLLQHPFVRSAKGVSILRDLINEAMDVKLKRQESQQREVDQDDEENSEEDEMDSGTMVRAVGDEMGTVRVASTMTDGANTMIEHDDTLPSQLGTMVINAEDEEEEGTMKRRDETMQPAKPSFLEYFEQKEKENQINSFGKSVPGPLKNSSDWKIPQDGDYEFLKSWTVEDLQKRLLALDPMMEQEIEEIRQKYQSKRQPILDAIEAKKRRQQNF

Measured: residual activity

Chain of Serine/threonine-protein kinase PAK 3 (Homo sapiens) (O75914 whole entry, looked up): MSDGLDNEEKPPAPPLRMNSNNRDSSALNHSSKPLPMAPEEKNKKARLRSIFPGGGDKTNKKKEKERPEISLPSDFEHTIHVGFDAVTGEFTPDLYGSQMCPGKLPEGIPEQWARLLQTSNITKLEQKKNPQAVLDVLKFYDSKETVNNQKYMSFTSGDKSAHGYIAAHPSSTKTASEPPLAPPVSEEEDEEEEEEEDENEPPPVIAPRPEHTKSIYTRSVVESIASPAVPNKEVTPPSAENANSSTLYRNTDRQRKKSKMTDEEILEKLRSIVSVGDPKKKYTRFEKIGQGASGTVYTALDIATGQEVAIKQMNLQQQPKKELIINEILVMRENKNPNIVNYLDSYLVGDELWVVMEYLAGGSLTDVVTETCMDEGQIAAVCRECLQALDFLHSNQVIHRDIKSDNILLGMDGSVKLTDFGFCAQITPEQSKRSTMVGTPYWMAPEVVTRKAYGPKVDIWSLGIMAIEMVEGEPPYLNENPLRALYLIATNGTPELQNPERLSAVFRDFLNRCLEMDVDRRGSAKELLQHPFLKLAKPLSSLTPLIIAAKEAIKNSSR
Chain of Serine/threonine-protein kinase PAK 2 (Homo sapiens) (Q13177 whole entry): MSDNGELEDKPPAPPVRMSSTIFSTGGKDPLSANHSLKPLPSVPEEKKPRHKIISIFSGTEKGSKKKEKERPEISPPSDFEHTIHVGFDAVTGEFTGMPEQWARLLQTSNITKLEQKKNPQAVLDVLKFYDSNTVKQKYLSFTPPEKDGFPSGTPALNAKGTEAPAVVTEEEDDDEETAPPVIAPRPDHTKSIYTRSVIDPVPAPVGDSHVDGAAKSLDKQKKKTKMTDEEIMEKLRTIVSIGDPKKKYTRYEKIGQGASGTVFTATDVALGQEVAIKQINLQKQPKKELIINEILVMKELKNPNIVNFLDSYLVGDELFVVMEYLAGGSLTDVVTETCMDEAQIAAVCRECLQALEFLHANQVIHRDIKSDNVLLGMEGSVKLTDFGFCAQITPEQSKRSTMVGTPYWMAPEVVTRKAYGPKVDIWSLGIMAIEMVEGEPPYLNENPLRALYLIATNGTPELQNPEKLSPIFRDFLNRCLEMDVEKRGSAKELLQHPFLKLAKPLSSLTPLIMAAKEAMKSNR

CN(C)C(=O)Cn1cc(-c2nc([C@@](C)(c3ccc(-c4cnc(N)nc4)cc3)C3CC3)no2)cn1 [BI 665915]
inactive: [1] 94.5% | [2] 100% | [3] 98% | [4] 104% | [5] 104% | [6] 99%
